Experimental data: the NIST ThermoML archive (doi:10.1016/j.jct.2011.10.002)
± gives the expanded uncertainty stated by the source.

Settings: 298.15 K, 101.33 kPa, Liquid; for speed of sound: Sing-around technique in a fixed-path interferometer; for mass density: Vibrating tube method

For `Cc1ccncc1` [4-methylpyridine], the speed of sound was 1431.5 ± 1.2 m/s and the mass density was 950.179 ± 0.23 kg/m3.
With `C1CCOCC1` [tetrahydropyran] the speed of sound was 1269.9 ± 2.1 m/s and the mass density was 879.136 ± 0.7 kg/m3.
`Cc1ccccc1N` [2-methylaniline] showed a speed of sound of 1602.6 ± 1.3 m/s and a mass density of 994.351 ± 0.23 kg/m3.
In the case of `Cc1ccccn1` [2-methylpyridine], the speed of sound is reported as 1380.1 ± 2.1 m/s and the mass density is reported as 939.802 ± 0.77 kg/m3.
For `Cc1cccnc1` [3-methylpyridine], the speed of sound was 1424 ± 1.2 m/s and the mass density was 952.002 ± 0.23 kg/m3.
